Measurements as given in patent US9387238B2, “CDCA1 epitope peptides and vaccines containing the same” (OncoTherapy Science, Inc., priority 2008, dated 2016).

Key:
[1] = tested on: peptide-pulsed A24LCL cells; test: IFN-gamma ELISA assay on CTL lines established with CDCA1 peptides; assay type: cell-based, human; conditions: CTL line vs peptide-pulsed target cells, compared with target cells not pulsed
Procedure: CTLs were expanded in culture using the method similar to the one described by Riddell et al. (Walter E A et al., N Engl J Med 1995 Oct. 19, 333(16): 1038-44; Riddell S R et al., Nat Med 1996 February, 2(2): 216-23). A total of 5×10^4 CTLs were suspended in 25 ml of AIM-V/5% AS medium with 2 kinds of human B-lymphoblastoid cell lines, inactivated by MMC, in the presence of 40 ng/ml of anti-CD3 monoclonal antibody (Pharmingen). One day after initiating the cultures, 120 IU/ml of IL-2 were added to the cultures. The cultures were fed with fresh AIM-V/5% AS medium containing 30 IU/ml of IL-2 on days 5, 8 and 11 (Tanaka H et al., Br J Cancer 2001 Jan. 5, 84(1): 94-9; Umano Y et al., Br J Cancer 2001 Apr. 20, 84(8): 1052-7; Uchida N et al., Clin Cancer Res 2004 Dec. 15, 10(24): 8577-86; Suda T et al., Cancer Sci 2006 May, 97(5): 411-9; Watanabe T et al., Cancer Sci 2005 August, 96(8): 498-506).
(§1) To examine specific CTL activity, interferon (IFN)-gamma enzyme-linked immunospot (ELISPOT) assay and IFN-gamma enzyme-linked immunosorbent assay (ELISA) were performed. Specifically, peptide-pulsed A24LCL (1×10^4/well) was prepared as stimulator cells. Cultured cells in 48 wells were used as responder cells. IFN-gamma ELISPOT assay and IFN-gamma ELISA assay were performed under manufacture procedure.

[2] = tested on: peptide-pulsed A24LCL cells; test: IFN-gamma ELISPOT assay on CTLs induced with CDCA1 peptides; assay type: cell-based, human; conditions: CTLs from HLA-A*2402 positive donor vs peptide-pulsed target cells, compared with the control
Description: Monocyte-derived dendritic cells (DCs) were used as antigen-presenting cells (APCs) to induce cytotoxic T lymphocyte (CTL) responses against peptides presented on human leukocyte antigen (HLA). DCs were generated in vitro as described elsewhere (Nakahara S et al., Cancer Res 2003 Jul. 15, 63(14): 4112-8). Specifically, peripheral blood mononuclear cells (PBMCs) isolated from a normal volunteer (HLA-A*2402 positive) by Ficoll-Plaque (Pharmacia) solution were separated by adherence to a plastic tissue culture dish (Becton Dickinson) so as to enrich them as the monocyte fraction. The monocyte-enriched population was cultured in the presence of 1000 U/ml of granulocyte-macrophage colony-stimulating factor (GM-CSF) (R&D System) and 1000 U/ml of interleukin (IL)-4 (R&D System) in AIM-V Medium (Invitrogen) containing 2% heat-inactivated autologous serum (AS). After 7 days of culture, the cytokine-induced DCs were pulsed with 20 micro g/ml of each of the synthesized peptides in the presence of 3 micro g/ml of beta 2-microglobulin for 3 hr at 37 degrees C. in AIM-V Medium. The generated cells appeared to express DC-associated molecules, such as CD80, CD83, CD86 and HLA class II, on their cell surfaces (data not shown). These peptide-pulsed DCs were then inactivated by Mitomycin C (MMC) (30 micro g/ml for 30 min) and mixed at a 1:20 ratio with autologous CD8+ T cells, obtained by positive selection with CD8 Positive Isolation Kit (Dynal). These cultures were set up in 48-well plates (Corning); each well contained 1.5×10^4 peptide-pulsed DCs, 3×10^5 CD8+ T cells and 10 ng/ml of IL-7 (R&D System) in 0.5 ml of AIM-V/2% AS medium. Three days later, these cultures were supplemented with IL-2 (CHIRON) to a final concentration of 20 IU/ml. On day 7 and 14, the T cells were further stimulated with the autologous peptide-pulsed DCs. The DCs were prepared each time by the same way described above. CTL was tested against peptide-pulsed A24LCL cells after the 3rd round of peptide stimulation on day 21 (Tanaka H et al., Br J Cancer 2001 Jan. 5, 84(1): 94-9; Umano Y et al., Br J Cancer 2001 Apr. 20, 84(8): 1052-7; Uchida N et al., Clin Cancer Res 2004 Dec. 15, 10(24): 8577-86; Suda T et al., Cancer Sci 2006 May, 97(5): 411-9; Watanabe T et al., Cancer Sci 2005 August, 96(8): 498-506).
as §1

[3] = tested on: COS7 cells transfected with CDCA1 and HLA-A*2402; test: Specific CTL activity against target cells exogenously expressing CDCA1 and HLA-A*2402; assay type: cell-based
Description: The cDNA encoding an open reading frame of target genes or HLA-A24 was amplified by PCR. The PCR-amplified product was cloned into pCAGGS vector. The plasmids were transfected into COS7, which is the target genes and HLA-A24-null cell line, using lipofectamine 2000 (Invitrogen) according to the manufacturer's recommended procedures. After 2 days from transfection, the transfected cells were harvested with versene (Invitrogen) and used as the target cells (5×10^4 cells/well) for CTL activity assay.
The established CTL lines raised against these peptides were examined for their ability to recognize target cells that exogenously express CDCA1 and HLA-A*2402 molecule. Specific CTL activity against COS7 cells which transfected with both the full length of CDCA1 and HLA-A*2402 molecule gene (a specific model for the target cells that exogenously express CDCA1 and HLA-A*2402 gene) was tested using the CTL lines raised by corresponding peptide as the effecter cells. COS7 cells transfected with either full length of CDCA1 genes or HLA-A*2402 were prepared as control.

[4] = tested on: target cells pulsed with peptide; test: IFN-gamma ELISA assay on CTL clone established by limiting dilution; assay type: cell-based, human; conditions: CTL clone by limiting dilution vs peptide-pulsed target cells, compared with the control
Procedure: The dilutions were made to have 0.3, 1, and 3 CTLs/well in 96 round-bottomed micro titer plate (Nalge Nunc International). CTLs were cultured with 1×10^4 cells/well of 2 kinds of human B-lymphoblastoid cell lines, 30 ng/ml of anti-CD3 antibody, and 125 U/ml of IL-2 in a total of 150 micro 1/well of AIM-V Medium containing 5% AS. 50 micro 1/well of IL-2 were added to the medium 10 days later so to reach a final concentration of 125 U/ml IL-2. CTL activity was tested on the 14th day, and CTL clones were expanded using the same method as described above (Uchida N et al., Clin Cancer Res 2004 Dec. 15, 10(24): 8577-86; Suda T et al., Cancer Sci 2006 May, 97(5): 411-9; Watanabe T et al., Cancer Sci 2005 August, 96(8): 498-506).
as §1

Sequence | IFN-gamma production of CTL line (ELISA) [1] | IFN-gamma production of induced CTLs (ELISPOT) [2] | specific CTL activity ([3]; CTL clone vs COS7 cells transfected with both CDCA1 and HLA-A*2402) | specific CTL activity ([3]; CTL clone vs target cells expressing either HLA-A*2402 or CDCA1 (controls)) | IFN-gamma production of CTL clone (ELISA) [4]
IYMRALQIVY [SEQ ID NO: 11, 10-mer peptide derived from CDCA1, start position 48] | potent IFN-gamma production | potent IFN-gamma production | – | – | –
KTEENSFKRL [SEQ ID NO: 4, 10-mer peptide derived from CDCA1, start position 335] | potent IFN-gamma production | potent IFN-gamma production | – | – | –
MYPHLMEGFL [SEQ ID NO: 2, 10-mer peptide derived from CDCA1, start position 74] | no specific IFN-gamma production | no specific IFN-gamma production | – | – | –
RFLSGIINFI [SEQ ID NO: 3, 10-mer peptide derived from CDCA1, start position 119] | potent IFN-gamma production | potent IFN-gamma production | – | – | –
RYNVAEIVI [SEQ ID NO: 22, 9-mer peptide derived from CDCA1, start position 8] | potent IFN-gamma production | potent IFN-gamma production | – | – | –
SFPRYNVAEI [SEQ ID NO: 14, 10-mer peptide derived from CDCA1, start position 5] | potent IFN-gamma production | potent IFN-gamma production | – | – | –
VYGIRLEHF [SEQ ID NO: 23, 9-mer peptide derived from CDCA1, start position 56] | potent IFN-gamma production | potent IFN-gamma production | high specific CTL activity | no significant specific CTL activity | potent IFN-gamma production
